Experimental data from patent US20030236399A1, “Method of improving the quality of taste of natural sweetner” (Shangdong Hua Xian Stevia Co., Ltd., priority 2002, published 2003).

Tests used:
[1] = background statement; cited from earlier work
[2] = high temperature, high acidity and high alkalinity; cited from earlier work
[3] = Dissolving under ambient temperature, before and after the process; format: physicochemical
Description: Comparisons have been made between the natural sweetener before and after the process of the present invention and the results are illustrated as follow: […]

| Solubility under ambient temperature ([3]; Sweetness equivalent to 5% sucrose solution) | Solubility under ambient temperature ([3]; Sweetness equivalent to 10% sucrose solution) | Solubility under ambient temperature ([3]; Sweetness equivalent to 15% sucrose solution) | Compound | Sweetness level relative to sucrose [1] | Stability of structure [2] |
| --- | --- | --- | --- | --- | --- |
| insoluble under ambient | insoluble under ambient |  | C=C1C[C@@]23CC[C@H]4[C@@](C)(CCC[C@@]4(C)C(=O)O[C@@H]4O[C@H](CO)[C@@H](O)[C@H](O)[C@H]4O)[C@@H]2CC[C@]1(O[C@@H]1O[C@H](CO)[C@@H](O)[C@H](O)[C@H]1O[C@@H]1O[C@H](CO)[C@@H](O)[C@H](O)[C@H]1O)C3 [stevioside] | 200-300 times higher than that of sucrose | stable in structure |
|  |  | taste, easy to dissolve under | α-glycosyl stevioside |  |  |
